Tests used:
his-tagged FABP4 [1] = molecular target: T1, his-tagged FABP4 (Homo sapiens, UniProt P15090); assay: Competition binding assay with 1,8-ANS as tracer
T1 construct: purchased Cayman Chemical Company
Description: In accordance with previous reports, competition binding experiments were performed using 8-anilino-1-naphthalene sulfonic acid (1,8-ANS) as the tracer. Briefly, a mixture containing 0.12 ml phosphate buffer (50 mM, pH = 7.4), 0.03 ml TAP1 (2.6 mM–300 nM) in DMSO, 0.075 ml 1,8-ANS (24 nM) in phosphate buffer (0.2% ethanol, v/v) and 0.075 ml his-tagged FABP4 (1 µM) in phosphate buffer was incubated at room temperature for 5 min. […] The inhibition constants (K i) were calculated using the Cheng-Prusoff equation: K i = IC50/(1+[L]/K d), where [L] is the 1,8-ANS concentration and K d is the 1,8-ANS dissociation constant.

[2] = Parallel artificial membrane permeation assay (PAMPA); format: in vitro ADME; conditions: room temperature, read-out: permeability (PAMPA)
Description: The permeability of TAP1 was measured using a pre-coated PAMPA plate system (BD Biosciences) following the manufacturer's procedures. Briefly, TAP1 (100–200 µM, 0.2 ml) was added to donor plate and PBS (-) (0.2 ml) was added to the acceptor plate in the PAMPA plate assembly. After coupling both plates together and incubating at room temperature for 5 hr, 0.15 ml of the sample was obtained from each plate and 0.15 ml of the original compound solution was also obtained. Then, the absorbance of each sample was measured at 280 nm. The permeability was calculated as: Pe (cm/s) = (−ln[1−CA/Cequilibrium])/St (1/VD+1/VA) and Cequilibrium = [CDVD+CAVA]/(VD+VA). CD = C0 (AD−Abuffer)/(A0−Abuffer) and CA = C0 (AA−Abuffer)/(A0−Abuffer). C0 is the concentration of the start sample and A0, Abuffer, AD and AA are absorbances of the starting sample, buffer, donor and acceptor, respectively. VD and VA are the donor and acceptor volumes, respectively. S is the membrane area and t is the incubation time.

his-tagged FABP4 [3] = molecular target: T1, his-tagged FABP4; assay: Selectivity binding assay with FABP immobilized on Ni-NTA magnetic agarose beads
Description: For the selectivity binding assay, his-tagged FABP3 (0.75 mg/ml), FABP4 (0.75 mg/ml) and FABP5 (0.70 mg/ml) in 50 mM phosphate buffer containing 100 mM NaCl (20% glycerol, v/v, pH = 7.2) were used. Immobilization was performed following the manufacturer's procedures. Each solution of his-tagged FABP3 ([…], 1.5 µg), FABP4 (0.002 ml, 1.5 µg) or FABP5 (0.002 ml, 1.4 µg) was incubated with 0.02 ml Ni-NTA Magnetic Agarose Beads (Qiagen) and 0.5 ml protein binding buffer (50 mM NaH2PO4, 300 mM NaCl, 10 mM imidazole, pH = 8.0) at room temperature for 1 hr. After supernatant removal, protein binding buffer with 1% BSA was added, and the mixture was incubated at room temperature for 30 min. After removal of the supernatant, 0.4 ml of interaction buffer (50 mM NaH2PO4, 300 mM NaCl, 10 mM imidazole, and 0.005% Tween, v/v, pH = 8.0) and 0.05 ml [^125I]TAP1 (0.01 MBq) in interaction buffer (5% ethanol, v/v) were added. For measurement of non-specific binding, 0.05 ml of nonradioactive TAP1 in interaction buffer (5% ethanol, v/v, 11.3 µM) was added with the [^125I]TAP1. After incubation at room temperature for 2 hr, the supernatants were removed, and the beads washed with interaction buffer (5% ethanol, v/v). The radioactivity of beads in the tubes was measured with a well-type γ-counter (1480 Wizard3, PerkinElmer Japan Co., Osaka, Japan). Binding ratios were calculated as (radioactivity of beads)/(total applied radioactivity)/(protein abundance on beads)×100 (%Dose/µg protein).

[4] = test system: differentiated THP-1 cells; assay: Cell uptake study and inhibition assay; format: cell-based, Human; conditions: 4 °C, 3 hr
Description: Human monocytic leukemia THP-1 cells were obtained from ATCC and rat glioma C6 cells were from the Health Science Research Resources Bank. THP-1 cells were cultured in Gibco RPMI 1640 medium (Nissui Pharmaceutical Co., Ltd.) supplemented with 10% heat-inactivated fetal bovine serum (Nichirei Bioscience Inc.), 50 U/ml penicillin and 50 µg/ml streptomycin (Nacalai Tesque, Inc.) at 37 °C in 5% CO2. C6 cells were cultured in McCoy's 5A Modified Medium supplemented with 10% heat-inactivated fetal bovine serum, 50 U/ml penicillin and 50 µg/ml streptomycin at 37 °C in 5% CO2. For cell uptake assays, THP-1 monocytes were differentiated into macrophages by incubation with 100 nM phorbol 12-myristate 13-acetate for 24 hr.
For the cell uptake study, tubes were pre-incubated with 50 mg/ml skim milk in PBS (-) at 4 °C for 3 hr. Then, 0.4 ml of differentiated THP-1 cells (1.0×10^6 cells/tube) in PBS (-) and 0.05 ml [^125I]TAP1 in PBS (-) (0.008 MBq, 5% ethanol, v/v) were added to the tubes, and the cells were incubated at 4 °C for 3 hr. […] The radioactivity of the tubes was measured with a well-type γ-counter. […] Binding ratios were calculated as (radioactivity in tubes)/(total applied radioactivity)/(protein abundance) ×100 (%Dose/mg protein). […] After incubation at 4 °C for 3 hr, the radioactivity measurement and calculation of the binding ratio were performed as described above. […]

[5] = test system: 3T3-L1 preadipocytes and differentiated adipocytes; assay: Cell uptake study in adipocytes and preadipocytes; format: cell-based, Murine; conditions: concentration-dependent, 0-100 μM
Description: Murine 3T3-L1 preadipocytes were obtained from ATCC and cultured in Dulbecco's Modified Eagle Medium (Nissui Pharmaceutical Co., Ltd.) supplemented with 10% heat-inactivated fetal bovine serum, 50 U/ml penicillin and 50 μg/ml streptomycin at 37 °C in 5% CO2. For cell uptake assay, differentiation of 3T3-L1 cells was performed as described previously. Briefly, two days after confluence, the medium was replaced with DMEM containing 10% FBS and inducers ([…], 10 μg/ml insulin, 0.5 mM 3-isobutyl-1-methylxanthine and 10 μM pioglitazone hydrochloride) for 2 days. The medium was then changed to DMEM supplemented with 10% FBS, 10 μg/ml insulin and 10 μM pioglitazone hydrochloride, and then incubated for 2 days. Then, the medium was changed to DMEM supplemented with 10% FBS and 10 μM pioglitazone hydrochloride every other day. After 8-10 days, the differentiated adipocytes were used for experiments.
For the cell uptake study using adipocytes, the medium of 24-well plate, in which the differentiated adipocytes or undifferentiated 3T3-L1 cells are cultured, was removed. […] Following the measurement of the radioactivity of collected cell lysate with a well-type γ-counter, protein determination was performed. […] Binding ratios were calculated as (radioactivity in collected cells)/(total applied radioactivity)/(protein abundance) x 100 (%Dose/mg protein).

T1 sequence (P15090 whole entry): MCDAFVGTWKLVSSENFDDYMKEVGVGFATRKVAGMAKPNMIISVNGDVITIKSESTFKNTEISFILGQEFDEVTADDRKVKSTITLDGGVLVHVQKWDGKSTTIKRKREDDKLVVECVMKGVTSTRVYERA

SMILES	Kd (his-tagged FABP4 [1])	Papp at 5 h [2]	FABP4 binding relative to FABP3 (his-tagged FABP4 [3]; FABP4 over FABP3)	FABP4 binding relative to FABP5 (his-tagged FABP4 [3]; FABP4 over FABP5)	Ki (his-tagged FABP4 [1]; competition with 1,8-ANS, FABP4)	inhibition of [^125I]TAP1 uptake into differentiated THP-1 cells [4]	inhibition of [^125I]TAP1 uptake into adipocytes [5]
O=S(=O)(O)c1cccc2cccc(Nc3ccccc3)c12 [1,8-ANS, 8-anilino-1-naphthalene sulfonic acid, reference compound]	1200 nM						
O=c1cc(COc2cccc(I)c2)[nH]c2nc(-c3ccccc3)nn12 [TAP1, 5-{(3-Iodophenoxy)methyl}-2-phenyl-[1], [2], [4]triazolo[1,5-a]pyrimidin-7(4H)-one]		12.6 ± 2.9 ×10⁻⁶ cm/s	more than 10 fold	more than 10 fold	44.5 ± 9.8 nM	significantly inhibited	
CCc1c(-c2ccccc2)c(-c2ccccc2)nn1-c1ccccc1-c1cccc(OCC(=O)O)c1 [BMS309403, reference compound]						significantly inhibited	significantly inhibited
